According to patent publication US20080009418A1, “Selective Inhibitors” (Alchemia LTD., priority 2004, published 2008):

Experiments:
Human Melanocortin (MC3) = target: T1, Human Melanocortin (MC3) (Homo sapiens, UniProt P41968); assay: Radioligand binding, human melanocortin MC3 membranes, FlashPlate, [125I]-NDP-αMSH; conditions: compound at 10 μM, [125I]-NDP-αMSH
T1 construct: purchased Perkin Elmer Biosignal
Procedure, shortened: (§1)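 Cloned human receptor membranes were coated onto FlashPlate wells and incubated with radioligand and compound (added from a 0.5 mM DMSO daughter plate) for 1 hour at room temperature in the dark. Scintillation counting gave percent inhibition, with DMSO defining total and reference ligand defining non-specific binding.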

Human μ-opioid (MOP) = target: T2, Human μ-opioid (MOP) (Homo sapiens, UniProt P35372); assay: Radioligand binding, human μ-opioid (MOP) membranes, FlashPlate, [3H]-Naloxone; conditions: compound at 10 μM, [3H]-Naloxone
T2 construct: purchased Perkin Elmer Biosignal
Procedure, shortened: as §1

Human opioid (ORL1) = target: T3, Human opioid (ORL1) (Homo sapiens, UniProt P41146); assay: Radioligand binding, human opioid ORL1 membranes, FlashPlate, [125I]-Nociceptin; conditions: compound at 10 μM, [125I]-Nociceptin
T3 construct: purchased Perkin Elmer Biosignal
Procedure, shortened: as §1

[1] = target: T4, Human melanin-concentrating hormone (MCH1) (Homo sapiens, UniProt Q99705); assay: Radioligand binding, human melanin-concentrating hormone MCH1 membranes, FlashPlate, [125I]-S36057; conditions: compound at 10 μM
T4 construct: purchased Perkin Elmer Biosignal
Procedure, shortened: as §1

Human melanocortin (MC5) = target: T5, Human melanocortin (MC5) (Homo sapiens, UniProt P33032); assay: Radioligand binding, human melanocortin MC5 membranes, FlashPlate, [125I]-NDP-αMSH; conditions: compound at 10 μM, [125I]-NDP-αMSH
T5 construct: purchased Perkin Elmer Biosignal
Procedure, shortened: as §1

[2] = target: T6, Human neuropeptide Y (NPY-Y1) (Homo sapiens, UniProt P25929); assay: Radioligand binding, human neuropeptide Y NPY-Y1 membranes, FlashPlate, [125I]-PYY; conditions: compound at 10 μM, [125I]-PYY
T6 construct: purchased Perkin Elmer Biosignal
T6 sequence (P25929 1-384): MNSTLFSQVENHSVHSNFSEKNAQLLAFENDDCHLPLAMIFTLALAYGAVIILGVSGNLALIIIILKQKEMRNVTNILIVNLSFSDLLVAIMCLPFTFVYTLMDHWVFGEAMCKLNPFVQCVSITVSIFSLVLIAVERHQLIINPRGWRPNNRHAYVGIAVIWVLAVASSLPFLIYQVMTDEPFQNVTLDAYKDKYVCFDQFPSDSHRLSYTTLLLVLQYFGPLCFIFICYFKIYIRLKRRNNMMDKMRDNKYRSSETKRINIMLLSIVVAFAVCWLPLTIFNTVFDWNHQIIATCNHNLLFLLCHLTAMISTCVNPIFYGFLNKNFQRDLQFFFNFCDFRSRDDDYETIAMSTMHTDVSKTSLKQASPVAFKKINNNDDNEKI
Procedure, shortened: as §1

Human δ-opioid (DOP) = target: T7, Human δ-opioid (DOP) (Homo sapiens, UniProt P41143); assay: Radioligand binding, human δ-opioid (DOP) membranes, FlashPlate, [3H]-Bremazocine; conditions: compound at 10 μM, [3H]-Bremazocine
T7 construct: purchased Perkin Elmer Biosignal
Procedure, shortened: as §1

Human Melanocortin (MC4) = target: T8, Human Melanocortin (MC4) (Homo sapiens, UniProt P32245); assay: Radioligand binding, human melanocortin MC4 membranes, FlashPlate, [125I]-NDP-αMSH; conditions: compound at 10 μM, [125I]-NDP-αMSH
T8 construct: purchased Perkin Elmer Biosignal
Procedure, shortened: as §1

Mouse urotensin (mUR2) = target: T9, Mouse urotensin (mUR2) (Mus musculus, UniProt Q8VIH9); assay: Radioligand binding, mouse urotensin mUR2 membranes, FlashPlate, [125I]-Urotensin II; conditions: compound at 10 μM, [125I]-Urotensin II
T9 construct: purchased Perkin Elmer Biosignal
T9 sequence (Q8VIH9 1-385): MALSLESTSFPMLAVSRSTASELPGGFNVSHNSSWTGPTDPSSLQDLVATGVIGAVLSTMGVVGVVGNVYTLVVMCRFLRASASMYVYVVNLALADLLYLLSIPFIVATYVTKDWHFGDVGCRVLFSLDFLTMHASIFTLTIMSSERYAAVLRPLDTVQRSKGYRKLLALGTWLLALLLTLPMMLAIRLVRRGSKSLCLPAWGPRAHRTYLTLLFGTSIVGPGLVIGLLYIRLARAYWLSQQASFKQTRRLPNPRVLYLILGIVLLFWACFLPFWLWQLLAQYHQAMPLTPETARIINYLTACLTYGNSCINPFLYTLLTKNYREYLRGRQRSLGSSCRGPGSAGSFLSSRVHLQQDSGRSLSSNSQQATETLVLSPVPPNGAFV
Procedure, shortened: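 Cloned mouse urotensin (mUR2) receptor membranes from Perkin Elmer Biosignal were immobilized in FlashPlate microplates using a proprietary coating. Each well got 19.5 μl buffer, then 0.5 μl of DMSO, reference ligand, or compound. Adding 5 μl of [125I]-Urotensin II, diluted to 5× final concentration in binding buffer, started binding. Plates were sealed with TopSeal-A and incubated 1 hour at room temperature in the dark. Wells were counted for 30 seconds each on a TopCount after a 60-second delay, and percentage inhibition was calculated.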

Human neurokinin (NK1) = target: T10, Human neurokinin (NK1) (Homo sapiens, UniProt P25103); assay: Radioligand binding, human neurokinin NK1 membranes, filtration, [125I]-Substance P; conditions: compound at 10 μM, [125I]-Substance P
T10 construct: purchased Perkin Elmer Biosignal
Procedure, shortened: (§2)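 Membranes from cloned human receptors were incubated with compound and radioligand for 1 hour at room temperature. Bound ligand was collected on 0.3% PEI-soaked filters, washed with cold 50 mM Tris-HCl pH 7.4, and counted by scintillation. Percent inhibition was computed against DMSO totals and reference-ligand nonspecific wells.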

Human κ-Opioid (KOP) = target: T11, Human κ-Opioid (KOP) (Homo sapiens, UniProt P41145); assay: Radioligand binding, human κ-opioid (KOP) membranes, filtration, [3H]-Diprenorphine; conditions: compound at 10 μM, [3H]-Diprenorphine
T11 construct: purchased Perkin Elmer Biosignal
Procedure, shortened: as §2

[3] = [125I]-S36057, human MCH1 membranes

T7 sequence (P41143 whole entry): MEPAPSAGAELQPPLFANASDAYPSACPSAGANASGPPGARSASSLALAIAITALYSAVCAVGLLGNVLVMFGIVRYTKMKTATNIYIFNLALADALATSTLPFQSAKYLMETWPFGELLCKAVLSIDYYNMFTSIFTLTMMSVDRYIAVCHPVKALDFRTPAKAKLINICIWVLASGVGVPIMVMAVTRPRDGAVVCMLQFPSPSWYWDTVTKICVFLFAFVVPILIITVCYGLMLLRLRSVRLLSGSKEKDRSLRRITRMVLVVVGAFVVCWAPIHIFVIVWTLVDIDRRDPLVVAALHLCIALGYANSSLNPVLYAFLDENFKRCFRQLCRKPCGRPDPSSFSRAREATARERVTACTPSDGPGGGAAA
T5 sequence (P33032 whole entry): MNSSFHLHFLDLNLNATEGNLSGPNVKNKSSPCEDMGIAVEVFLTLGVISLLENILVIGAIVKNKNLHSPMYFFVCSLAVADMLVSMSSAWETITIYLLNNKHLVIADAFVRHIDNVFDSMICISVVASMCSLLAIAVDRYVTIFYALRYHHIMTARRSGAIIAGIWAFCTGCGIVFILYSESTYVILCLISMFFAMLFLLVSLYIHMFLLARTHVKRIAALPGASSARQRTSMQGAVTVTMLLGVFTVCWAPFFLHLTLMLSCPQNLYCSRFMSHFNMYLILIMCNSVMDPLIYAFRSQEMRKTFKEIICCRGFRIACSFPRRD
T11 sequence (P41145 whole entry): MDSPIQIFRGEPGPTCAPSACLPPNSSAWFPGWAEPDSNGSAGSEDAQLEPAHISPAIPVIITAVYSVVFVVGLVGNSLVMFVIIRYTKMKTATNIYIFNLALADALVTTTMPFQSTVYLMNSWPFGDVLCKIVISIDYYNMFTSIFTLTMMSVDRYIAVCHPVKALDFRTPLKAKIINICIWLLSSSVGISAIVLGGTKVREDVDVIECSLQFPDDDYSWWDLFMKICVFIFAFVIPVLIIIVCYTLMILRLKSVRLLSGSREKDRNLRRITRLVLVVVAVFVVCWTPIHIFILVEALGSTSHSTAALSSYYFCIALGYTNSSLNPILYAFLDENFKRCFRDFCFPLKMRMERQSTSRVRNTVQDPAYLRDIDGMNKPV
T4 sequence (Q99705 whole entry): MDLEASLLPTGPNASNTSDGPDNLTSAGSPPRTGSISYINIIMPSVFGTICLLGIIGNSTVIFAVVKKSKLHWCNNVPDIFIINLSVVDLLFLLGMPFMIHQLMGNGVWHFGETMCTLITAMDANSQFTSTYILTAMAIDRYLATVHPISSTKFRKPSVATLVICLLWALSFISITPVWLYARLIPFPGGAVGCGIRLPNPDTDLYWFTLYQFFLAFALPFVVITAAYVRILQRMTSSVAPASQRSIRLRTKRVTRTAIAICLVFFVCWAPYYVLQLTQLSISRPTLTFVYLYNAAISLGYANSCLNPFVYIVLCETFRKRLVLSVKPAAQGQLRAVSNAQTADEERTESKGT
T10 sequence (P25103 whole entry): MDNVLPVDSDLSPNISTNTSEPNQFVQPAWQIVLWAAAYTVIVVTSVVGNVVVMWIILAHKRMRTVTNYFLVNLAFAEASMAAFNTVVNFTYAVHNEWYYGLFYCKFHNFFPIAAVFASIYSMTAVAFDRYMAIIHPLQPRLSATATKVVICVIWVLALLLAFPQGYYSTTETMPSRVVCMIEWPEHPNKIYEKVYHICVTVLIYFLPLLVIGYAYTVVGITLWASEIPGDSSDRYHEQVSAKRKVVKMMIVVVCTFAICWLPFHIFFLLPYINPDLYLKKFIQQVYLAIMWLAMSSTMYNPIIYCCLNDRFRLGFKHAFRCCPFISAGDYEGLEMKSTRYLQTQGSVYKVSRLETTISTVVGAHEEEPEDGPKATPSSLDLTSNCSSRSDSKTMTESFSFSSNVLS
T2 sequence (P35372 whole entry): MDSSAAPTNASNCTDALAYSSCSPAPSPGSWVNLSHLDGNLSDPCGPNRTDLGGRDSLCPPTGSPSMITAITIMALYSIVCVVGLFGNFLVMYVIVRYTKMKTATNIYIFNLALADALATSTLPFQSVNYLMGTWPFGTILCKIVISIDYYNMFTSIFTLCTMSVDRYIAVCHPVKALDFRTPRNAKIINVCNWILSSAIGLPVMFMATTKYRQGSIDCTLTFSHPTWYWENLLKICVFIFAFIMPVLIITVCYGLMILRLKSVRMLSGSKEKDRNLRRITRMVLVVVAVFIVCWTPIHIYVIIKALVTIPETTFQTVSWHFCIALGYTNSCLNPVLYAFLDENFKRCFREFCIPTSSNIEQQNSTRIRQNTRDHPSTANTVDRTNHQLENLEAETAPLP
T8 sequence (P32245 whole entry): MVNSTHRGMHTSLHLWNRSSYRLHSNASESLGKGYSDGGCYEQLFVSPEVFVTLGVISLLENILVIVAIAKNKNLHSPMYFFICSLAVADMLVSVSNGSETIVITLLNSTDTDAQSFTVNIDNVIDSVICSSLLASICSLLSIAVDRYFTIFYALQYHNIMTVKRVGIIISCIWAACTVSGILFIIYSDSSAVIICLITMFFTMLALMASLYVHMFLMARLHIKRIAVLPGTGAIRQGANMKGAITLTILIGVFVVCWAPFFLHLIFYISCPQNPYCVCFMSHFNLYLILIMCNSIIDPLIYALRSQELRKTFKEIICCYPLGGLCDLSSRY
T3 sequence (P41146 whole entry): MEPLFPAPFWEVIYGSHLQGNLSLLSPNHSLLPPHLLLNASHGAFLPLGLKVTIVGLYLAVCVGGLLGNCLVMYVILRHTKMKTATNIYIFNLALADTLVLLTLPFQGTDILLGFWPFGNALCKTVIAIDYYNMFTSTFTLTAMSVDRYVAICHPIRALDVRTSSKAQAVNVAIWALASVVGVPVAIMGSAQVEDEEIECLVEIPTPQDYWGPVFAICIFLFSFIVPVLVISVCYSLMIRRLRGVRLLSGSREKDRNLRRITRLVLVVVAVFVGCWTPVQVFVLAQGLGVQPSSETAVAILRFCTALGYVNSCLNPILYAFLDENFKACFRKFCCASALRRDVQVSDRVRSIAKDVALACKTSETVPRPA
T1 sequence (P41968 whole entry): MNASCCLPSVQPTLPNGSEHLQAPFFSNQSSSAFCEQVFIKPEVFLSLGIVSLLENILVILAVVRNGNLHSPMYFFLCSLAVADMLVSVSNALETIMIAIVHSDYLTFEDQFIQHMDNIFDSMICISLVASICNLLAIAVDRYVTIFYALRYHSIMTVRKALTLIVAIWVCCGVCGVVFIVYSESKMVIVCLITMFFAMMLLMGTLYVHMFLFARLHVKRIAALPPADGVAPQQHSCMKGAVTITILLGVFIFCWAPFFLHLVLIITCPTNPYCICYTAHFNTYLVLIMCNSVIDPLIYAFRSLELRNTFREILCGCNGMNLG

Compound	A3: inhibition of radioligand binding (Human Melanocortin (MC3); human MC3 membranes)	A7: inhibition of radioligand binding (Human μ-opioid (MOP); human MOP membranes)	A10: inhibition of radioligand binding (Human opioid (ORL1); human ORL1 membranes)	A6: inhibition of radioligand binding [1, 3]	A5: inhibition of radioligand binding (Human melanocortin (MC5); human MC5 membranes)	A9: inhibition of radioligand binding ([2]; human NPY-Y1 membranes)	A1: inhibition of radioligand binding (Human δ-opioid (DOP); human DOP membranes)	A4: inhibition of radioligand binding (Human Melanocortin (MC4); human MC4 membranes)	A11: inhibition of radioligand binding (Mouse urotensin (mUR2); mouse mUR2 membranes)	A8: inhibition of radioligand binding (Human neurokinin (NK1); human NK1 membranes)	A2: inhibition of radioligand binding (Human κ-Opioid (KOP); human KOP membranes)	also measured
N=C(N)NCCC(=O)NC1C(OCc2ccc(Cl)cc2)OC(COCc2ccc(Cl)cc2)C(O)C1OCc1ccc(Cl)cc1 (stereo not drawn) [compound 428]	+ (“+” indicates greater than 50% inhibition at 10 μM)	− (“−” indicates less than 50% inhibition at 10 μM)	+ (“+” indicates greater than 50% inhibition at 10 μM)	+ (“+” indicates greater than 50% inhibition at 10 μM)	+ (“+” indicates greater than 50% inhibition at 10 μM)	− (“−” indicates less than 50% inhibition at 10 μM)	− (“−” indicates less than 50% inhibition at 10 μM)	+ (“+” indicates greater than 50% inhibition at 10 μM)	− (“−” indicates less than 50% inhibition at 10 μM)	+ (“+” indicates greater than 50% inhibition at 10 μM)	− (“−” indicates less than 50% inhibition at 10 μM)	–
NCCC(=O)N[C@H]1C(OCc2ccc3ccccc3c2)O[C@H](COCc2ccccc2)[C@@H](O)[C@@H]1OCc1ccccc1 (stereo partly drawn) [compound 450]	− (“−” indicates less than 50% inhibition at 10 μM)	− (“−” indicates less than 50% inhibition at 10 μM)	− (“−” indicates less than 50% inhibition at 10 μM)	− (“−” indicates less than 50% inhibition at 10 μM)	− (“−” indicates less than 50% inhibition at 10 μM)	− (“−” indicates less than 50% inhibition at 10 μM)	− (“−” indicates less than 50% inhibition at 10 μM)	− (“−” indicates less than 50% inhibition at 10 μM)	− (“−” indicates less than 50% inhibition at 10 μM)	+ (“+” indicates greater than 50% inhibition at 10 μM)	− (“−” indicates less than 50% inhibition at 10 μM)	–
COCC1OC(OCc2ccc(Cl)cc2)C(NC(=O)CCCNC(=N)N)C(OCc2ccc(Cl)cc2)C1O (stereo not drawn) [compound 204]	–	–	–	–	–	–	–	–	–	–	–	A3: inhibition of radioligand binding (Human Melanocortin (MC3); FlashPlate): + (“+” indicates greater than 50% inhibition at 10 μM); A7: inhibition of radioligand binding (Human μ-opioid (MOP); FlashPlate): − (“−” indicates less than 50% inhibition at 10 μM); A10: inhibition of radioligand binding (Human opioid (ORL1); FlashPlate): − (“−” indicates less than 50% inhibition at 10 μM); A6: inhibition of radioligand binding ([1]; [125I]-S36057, FlashPlate): + (“+” indicates greater than 50% inhibition at 10 μM); A5: inhibition of radioligand binding (Human melanocortin (MC5); FlashPlate): + (“+” indicates greater than 50% inhibition at 10 μM); A9: inhibition of radioligand binding ([2]; FlashPlate): − (“−” indicates less than 50% inhibition at 10 μM); A1: inhibition of radioligand binding (Human δ-opioid (DOP); FlashPlate): − (“−” indicates less than 50% inhibition at 10 μM); A4: inhibition of radioligand binding (Human Melanocortin (MC4); FlashPlate): + (“+” indicates greater than 50% inhibition at 10 μM); A11: inhibition of radioligand binding (Mouse urotensin (mUR2); FlashPlate): − (“−” indicates less than 50% inhibition at 10 μM); A8: inhibition of radioligand binding (Human neurokinin (NK1); filtration): + (“+” indicates greater than 50% inhibition at 10 μM); A2: inhibition of radioligand binding (Human κ-Opioid (KOP); filtration): − (“−” indicates less than 50% inhibition at 10 μM)
